Data set [1] deals with HCT116 cells (K-ras mutated cells). Briefly: Cell proliferation assay (MTT). The class given is cell-based, human. Also noted: dose or concentration left out as unconfirmed. As to conditions: same concentrations as fusion proteins (Fig. S4:), 24 h. The procedure: To assess the anti-proliferative activity of peptides and anti-Ras scFv fusion proteins, HCT116 cells (K-ras mutated cells) were seeded in 96-well plates at a density of 2×10^4 cells/well in 100 µL of DMEM supplemented with 10% FBS and cultured for 24 h at 37°C. […] Cell viability was measured with the 3-(4,5-dimethylthiazol-2-yl)-2,5-diphenyl tetrazolium bromide (MTT) assay using the CellTiter 96® Non-radioactive Cell Proliferation assay kit (Promega, Madison, WI) according to the manufacturer’s instructions. The absorbance of the solution was measured at 570 nm using a Microplate Reader (Bio-Rad). Cell viability was expressed as the percentage of viable cells treated with scFv or peptide-scFv fusion proteins compared to the PBS-treated control (100%). All experiments were done in triplicate.
Figure 4 Intracellular uptake of peptides and anti-Ras scFv fusion proteins and their anti-proliferative activity. […] (B) Protein uptake was analyzed by Western blotting of fractionated lysates from HCT116 cells treated with PBS, anti-Ras scFv, BR2- or Tat-scFv fusion protein (each, 2 µM) at 37°C for 2 h. […] Cell proliferation was determined using the MTT assay. […]
HCT116 cells were seeded in 96-well plates at a density of 2×10^4 cells/well in 100 μl of DMEM supplemented with 10% FBS and cultured for 24 h at 37°C. […] The absorbance of the solution was measured at 570 nm using a Microplate Reader (Bio-Rad). […]

A further data set concerns HeLa cells. The class given is cell-based, human. As to conditions: FACS. On the procedure: To evaluate the internalization of FITC-labeled peptides, HeLa cells were seeded onto 12-well plates at a density of 2×10^5 cells per well and incubated for 24 h. FITC-labeled peptides, at various concentrations ranging from […], were then incubated with the cells for 30 min at 37°C. To compare the cellular uptake of peptides, cancer and normal cells were treated with FITC-labeled peptides (each, 10 µM) and incubated for 30 min at 37°C. Following the incubation, cells were washed three times with ice-cold PBS to remove excess extracellular complexes. Next, the cells were treated with trypsin (1 mg/ml) for 10 min to remove any remaining peptides bound to the cell surface. After trypsinization, the cells were collected by centrifugation (1,000×g for 5 min), resuspended with 500 µl ice-cold 2% FBS/PBS containing propidium iodide (PI), and then immediately analyzed (10,000 events/sample) by fluorescence activated cell sorting (FACS).
To understand further the cell-penetrating mechanism of peptides, the effects of temperature and metabolic inhibitors were examined. To elucidate the temperature dependency, HeLa cells were incubated at 4°C for 30 min prior to the addition of the peptides. Next, cells were treated with FITC-labeled peptides (each, 5 µM) at 4°C for 30 min. For the energy-depletion study, HeLa cells were preincubated with sodium azide (NaN3, 10 mM) at 37°C for 1 h and then incubated with FITC-labeled peptides (each, 5 µM) at 37°C for 30 min.
To study the role of endocytosis in peptide uptake, cells were pretreated with several endocytosis inhibitors at 37°C for 1 h: (i) amiloride (5 mM), which is known to block macropinocytosis by inhibiting a sodium channel; (ii) nocodazole (100 ng/ml), which inhibits the clathrin-mediated pathway; and (iii) methyl-ß-cyclodextrin (MßCD, 5 mM), which inhibits lipid raft-mediated processes by depleting cholesterol from the plasma membrane. All inhibitors were purchased from Sigma (St. Louis, MO).
To examine the effects of negatively charged components on the cell surface for peptide internalization, HeLa cells were pretreated with gangliosides (monosialoganglioside GM3 from canine blood), heparin sulfate, or sialic acid (Neu5Ac, all from Sigma) (20 µg/ml) for 30 min. For the inhibition of ganglioside biosynthesis, cells were pretreated with D-threo-1-phenyl-2-hexadecanoyl amino-3-morpholino-1-propanol (PPMP, 5 µM) for 48 h.
For all of these experimental conditions, flow cytometry analyses were performed with live cells using a Becton Dickinson FACSCalibur flow cytometer (BD Biosciences, San Diego, CA). In each case, the fluorescence of 10,000 viable cells was acquired. Viable cells were gated based on a sideward and forward scatter. For data analysis, WinMDI software (Joe Trotter, Scripps Research Institute, La Jolla, CA) was used. The statistical significance was evaluated by Student’s t-test at a 95% confidence interval.
Figure 2 BR2 specifically penetrates cancer cell membranes in a concentration-dependent manner. (A) Analysis of the cell-penetrating efficiency of each peptide in different cell types by flow cytometry. FITC-labeled Tat, BR1 and BR2 peptides (10 µM) were added to different cell types: HeLa, HCT116 and B16/F10 cancer cells and HaCat, BJ and NIH 3T3 normal cells. After 30 min of incubation at 37°C, the FITC-positive cells were counted by flow cytometry. Values represent the percentage of fluorescence-positive cells in the total cell population. (B) Quantitative assessment of cell penetration of each peptide by flow cytometry. HeLa cells were incubated with FITC-labeled peptides at concentrations of 1, 2, 5, or 10 µM for 30 min at 37°C. Afterwards the cells were washed with cold PBS and harvested and cellular fluorescence was analyzed by flow cytometry. […] Prior to analysis, extracellular fluorescence of surface bound peptides was removed by a trypsin treatment (1 mg/ml for 10 min). […]

Another data set relates to human erythrocytes. In kind it is cell-based. Conditions: 25 µM, pH 7.4. The procedure: Hemolytic activity was assayed as described by Aboudy et al. with slight modifications; 3 ml of freshly prepared human erythrocytes was washed with isotonic PBS, pH 7.4, until the color of the supernatant turned clear. The washed erythrocytes were then diluted to a final volume of 20 ml with the same buffer. Peptide samples (10 µl), serially diluted in PBS, were added to 190 µl of the cell suspension in microcentrifuge tubes. Following gentle mixing, the tubes were incubated at 37°C for 30 min and then centrifuged at 4,000×g for 5 min. The supernatant (100 µl) was removed to a new tube and the absorbance at 567 nm was determined. The relative optical density, as compared with that of the cell suspension treated with 0.2% Triton X-100, was defined as percentage of hemolysis. The hemolysis percentage was calculated using the following equation: percentage hemolysis = [(Abs 567 nm in the peptide solution – Abs 567 nm in PBS)/(Abs 567 nm in 0.2% Triton X-100 – Abs 567 nm in PBS)]×100.
(§1) (B,C) In vitro cytotoxicity of peptides.

For data set [2], the system named is cancer cells (HeLa, HCT116 and B16/F10). Briefly: Confocal laser scanning microscopy of FITC-labeled peptide uptake, cancer cells. In kind it is cell-based, human, mouse. Conditions: FITC-labeled peptide 5 µM, 30 min, 37°C, live unfixed cells. On the procedure: (§2) To investigate the cell-penetrating ability and the intracellular distribution of the internalized peptides, live confocal microscopy was performed on three cancer lines (HeLa, HCT116 and B16/F10) and three normal cell lines (HaCat, BJ and NIH 3T3). Briefly, cells (2×10^5) were plated on a glass coverslip placed in a 6-well plate, grown overnight, and then incubated with FITC-labeled peptides (5 µM for each cell line) for 30 min. The cells were then rinsed three times with phosphate buffered saline (PBS, pH 7.4), and mounted on microscope slides with fluorescence mounting solution (Dako Corp, Carpinteria, CA). Colocalization of BR2 with lysosomes was observed by using LysoTracker Red DND-99 (Molecular Probe, Eugene, OR). To avoid the effects of fixation artifacts, involving both methanol and paraformaldehyde, cells were not fixed, [27]. The distribution of FITC-labeled peptides was analyzed using a confocal scanning laser Zeiss LSM 510 microscope (Jena, Germany) equipped with a 40× and 20× objective. Fluorophores were excited with an argon laser (488 nm) for FITC and a HeNe laser (543 nm) for LysoTracker Red.
as §1

The test system of data set [3] is normal cells (HaCat, BJ and NIH 3T3). Briefly: Confocal laser scanning microscopy of FITC-labeled peptide uptake, normal cells. As to conditions: FITC-labeled peptide 5 µM, 30 min, 37°C, live unfixed cells. The class given is cell-based, human, mouse. On the procedure:
as §2, §1

Residues, ends and D or L forms follow the SMILES beside them.

For the molecule “RKKRRQRRR [Tat, well-known CPP Tat (49–57), reference compound]”, in data set [1], the “anti-proliferative activity of peptide alone” value is reported as “did not show any detectable inhibitions”. The “decrease of cellular uptake at 4°C compared to 37°C” value in the data set on HeLa cells (FITC-labeled peptide 5 µM, 30 min at 4°C after preincubation at 4°C) stood at 31.6%. For the same molecule, the “reduction of uptake by ATP depletion (sodium azide)” value with HeLa cells (NaN3 10 mM preincubation 1 h 37°C, then FITC-labeled peptide 5 µM 30 min 37°C) was determined as 42.5%. The “effect of ganglioside synthesis inhibitor PPMP on peptide uptake” value with HeLa cells (PPMP 5 µM pretreatment 48 h) is given as “not”. Moreover, the “effect of exogenous gangliosides on peptide penetration” value in the data set on HeLa cells (gangliosides (GM3) 20 µg/ml, 30 min) is “not affected”. In addition, the “effect of exogenous heparin on peptide uptake” value in the data set on HeLa cells (heparin 20 µg/ml, 30 min) is reported as “severely reduced”. Further, the “effect of exogenous sialic acids on peptide penetration” value in the data set on HeLa cells (sialic acid (Neu5Ac) 20 µg/ml, 30 min) is on record as “not affected”.

As for `CC(C)C[C@H](NC(=O)CNC(=O)[C@H](C)NC(=O)[C@@H](N)CCCNC(=N)N)C(=O)N[C@@H](CCC(N)=O)C(=O)N[C@@H](Cc1ccccc1)C(=O)N1CCC[C@H]1C(=O)N[C@H](C(=O)NCC(=O)N[C@@H](CCCNC(=N)N)C(=O)N[C@@H](CC(C)C)C(=O)N[C@@H](CC(C)C)C(=O)N[C@@H](CCCNC(=N)N)C(=O)N[C@@H](CCCNC(=N)N)C(=O)N[C@@H](CC(C)C)C(=O)N[C@@H](CC(C)C)C(=O)N[C@@H](CCCNC(=N)N)C(=O)N[C@@H](CCCNC(=N)N)C(=O)N[C@@H](CC(C)C)C(=O)N[C@@H](CC(C)C)C(=O)N[C@@H](CCCNC(=N)N)C(=O)O)C(C)C` [BR3, buforin IIb] (H-RAGLQFPVGRLLRRLLRRLLR-OH), in the data set with human erythrocytes, the hemolysis was at least 5%.

Regarding RAGLQFPVGRLLR [BR1], the “cellular uptake (confocal microscopy)” value in data set [2] and in data set [3] was “negligible cellular uptake levels” throughout.

Source of the values: publication PMC3679022, “A Cancer Specific Cell-Penetrating Peptide, BR2, for the Efficient Delivery of an scFv into Cancer Cells” (PLoS ONE, 2013).
